According to patent publication US20100226994A1, “GRANULE, TABLET AND METHODS FOR PRODUCING THE SAME” (priority 2007, published 2010):

Assay: Heat storage of granule or raw substance on a tray at 70° C., residual ratio of functional substance
Type: physicochemical

| Compound | residual ratio of lipoic acid (on a tray at 70° C. for 24 hours) | residual ratio of vitamin E (on a tray at 70° C. for 72 hours) |
| --- | --- | --- |
| O=C(O)CCCCC1CCSS1 (centres unmarked) [Comparative Example 8, Lipoic acid] | 40.5% |  |
| Vitamin E [Comparative Example 10] |  | 96.5% |
